Source: ChEMBL document CHEMBL6109153, “Development of Membrane-Targeting Osthole Derivatives Containing Pyridinium Quaternary Ammonium Moieties with Potent Anti-Methicillin-Resistant Staphylococcus aureus Properties” (J Med Chem, 2025)
Calls of active or inactive are those of the source. No cut-off for these calls is given here.

Tests used:
[1] = Toxicity in KM mouse assessed as erythema on dorsal skin at <=20 mg/kg, sc; format: organism-based; conditions: in vivo
[2] = Toxicity in KM mouse assessed as adverse reactions at <=20 mg/kg, sc; format: organism-based; conditions: in vivo
[3] = Toxicity in KM mouse assessed as abnormality in heart at 20 mg/kg, sc by H and E staining based analysis; format: organism-based; conditions: in vivo
[4] = Toxicity in KM mouse assessed as abnormality in liver at 20 mg/kg, sc by H and E staining based analysis; format: organism-based; conditions: in vivo
[5] = Toxicity in KM mouse assessed as abnormality in spleen at 20 mg/kg, sc by H and E staining based analysis; format: organism-based; conditions: in vivo
[6] = Toxicity in KM mouse assessed as abnormality in lung at 20 mg/kg, sc by H and E staining based analysis; format: organism-based; conditions: in vivo
[7] = Toxicity in KM mouse assessed as abnormality in kidney at 20 mg/kg, sc by H and E staining based analysis; format: organism-based; conditions: in vivo
[8] = Toxicity in BALB/c mouse assessed as mortality rate at 20 mg/kg, ip measured for 7 days; format: organism-based; conditions: in vivo, time 7 day, read-out: Activity
[9] = Toxicity in BALB/c mouse assessed as change in blood routine parameters at 10 mg/kg, ip measured for 7 days; format: organism-based; conditions: in vivo, 168 h, time 7 day
[10] = Toxicity in BALB/c mouse assessed as obvious damage in tissues of organs at 10 mg/kg, ip measured for 7 days by H and E staining based analysis; format: organism-based; conditions: in vivo, 168 h, time 7 day
[11] = Toxicity in KM mouse assessed as erythema on dorsal skin at 40 mg/kg, sc; format: organism-based; conditions: in vivo
[12] = Toxicity in KM mouse assessed as erythema on dorsal skin at <=30 mg/kg, sc; format: organism-based; conditions: in vivo
[13] = Toxicity in KM mouse assessed as adverse reactions at <=30 mg/kg, sc; format: organism-based; conditions: in vivo
[14] = Toxicity in KM mouse assessed as abnormality in liver at 30 mg/kg, sc by H and E staining based analysis; format: organism-based; conditions: in vivo
[15] = Toxicity in KM mouse assessed as abnormality in spleen at 30 mg/kg, sc by H and E staining based analysis; format: organism-based; conditions: in vivo
[16] = Toxicity in KM mouse assessed as abnormality in lung at 30 mg/kg, sc by H and E staining based analysis; format: organism-based; conditions: in vivo
[17] = Toxicity in BALB/c mouse assessed as change in blood routine parameters at 30 mg/kg, ip measured for 7 days; format: organism-based; conditions: in vivo, 168 h, time 7 day
[18] = Toxicity in BALB/c mouse assessed as change in serum biochemical parameters at 30 mg/kg, ip measured for 7 days; format: organism-based; conditions: in vivo, 168 h, time 7 day
[19] = Toxicity in BALB/c mouse assessed as obvious damage in tissues of organs at 30 mg/kg, ip measured for 7 days by H and E staining based analysis; format: organism-based; conditions: in vivo, 168 h, time 7 day
[20] = system: Staphylococcus aureus; experiment: Antibacterial activity against methicillin-resistant Staphylococcus aureus M11 infected in BALB/c mouse model of Sepsis assessed as vacuolar degeneration in renal epithelial cells at 10 mg/kg, ip measured after 48 hrs; format: functional, organism-based
[21] = system: Staphylococcus aureus; experiment: Antibacterial activity against methicillin-resistant Staphylococcus aureus M11 infected in BALB/c mouse model of Sepsis assessed as vacuolar degeneration in renal epithelial cells at 20 mg/kg, ip measured after 48 hrs; format: functional, organism-based
[22] = system: Staphylococcus aureus; experiment: Antibacterial activity against methicillin-resistant Staphylococcus aureus M11 infected in BALB/c mouse model of Sepsis assessed as reduction in bacterial load in liver at 10 mg/kg, ip measured after 48 hrs; format: functional
[23] = system: Staphylococcus aureus; experiment: Antibacterial activity against methicillin-resistant Staphylococcus aureus M11 infected in BALB/c mouse model of Sepsis assessed as reduction in bacterial load in liver at 20 mg/kg, ip measured after 48 hrs; format: functional
[24] = system: Staphylococcus aureus; experiment: Antibacterial activity against methicillin-resistant Staphylococcus aureus M11 infected in BALB/c mouse model of Sepsis assessed as reduction in bacterial load in spleen at 10 mg/kg, ip measured after 48 hrs; format: functional
[25] = system: Staphylococcus aureus; experiment: Antibacterial activity against methicillin-resistant Staphylococcus aureus M11 infected in BALB/c mouse model of Sepsis assessed as reduction in bacterial load in kidney at 10 mg/kg, ip measured after 48 hrs; format: functional
[26] = system: Staphylococcus aureus; experiment: Antibacterial activity against methicillin-resistant Staphylococcus aureus M11 infected in BALB/c mouse model of Sepsis assessed as reduction in bacterial load in kidney at 20 mg/kg, ip measured after 48 hrs; format: functional
[27] = system: Staphylococcus aureus; experiment: Antibacterial activity against methicillin-resistant Staphylococcus aureus M11 infected in BALB/c mouse model of Sepsis assessed as reduction in serum IL-6 level administered intraperitoneally measured after 48 hrs; format: functional, organism-based; conditions: dose 10-20 mg/kg, route ip
[28] = Toxicity in BALB/c mouse model of Sepsis infected with methicillin-resistant Staphylococcus aureus M11 assessed as survival rate at 10 mg/kg, ip measured after 7 days; format: organism-based; conditions: in vivo, 168 h, time 7 day
[29] = Toxicity in BALB/c mouse model of Sepsis infected with methicillin-resistant Staphylococcus aureus M11 assessed as survival rate at 20 mg/kg, ip measured after 7 days; format: organism-based; conditions: in vivo, 168 h, time 7 day
[30] = Toxicity in BALB/c mouse model of Sepsis infected with methicillin-resistant Staphylococcus aureus M11 assessed as survival rate at 30 mg/kg, ip measured after 7 days; format: organism-based; conditions: in vivo, 168 h, time 7 day
[31] = Binding affinity to phosphatidylglycerol assessed as change in enthalpy by ITC analysis
[32] = Binding affinity to phosphatidylglycerol assessed as change in entropy by ITC analysis

With CCCCCNC(=O)C[n+]1ccc(SCCCCCOc2ccc3ccc(=O)oc3c2CC=C(C)C)cc1.[Br-] the Activity [1] was “Non-toxic”, the Activity [2] was “Non-toxic” and the Activity [3] was “Non-toxic”. For the same molecule, the Activity [4] was “Non-toxic”, the Activity [5] was “Non-toxic” and the Activity [6] was “Non-toxic”. The Activity [7] was “Non-toxic”, the mortality at 168 h [8] was 83.3% and the Activity [9] was “Non-toxic”. For the same molecule, the Activity [10] was “Non-toxic”.

In the case of CC(C)=CCc1c(OCCCCSc2cc[n+](CC(=O)N(CC(C)C)CC(C)C)cc2)ccc2ccc(=O)oc12.[Br-], the Activity [11] is reported as “Toxic”, the Activity [12] is reported as “Non-toxic” and the Activity [13] is reported as “Non-toxic”. For the same molecule, the Activity [14] was “Non-toxic”, the Activity [15] was “Non-toxic” and the Activity [16] was “Non-toxic”. For the same molecule, the Activity [17] was “Non-toxic”, the Activity [18] was “Non-toxic” and the Activity [19] was “Non-toxic”. The Activity [20] was “inactive”, the Activity [21] was “Active; Improvement Was Comparable To That In Vancomycin Group” and the Activity [22] was 1.84 log10CFU/ml. It also gave an Activity [23] of 3.81 log10CFU/ml, an Activity [24] of 1.62 log10CFU/ml and an Activity [25] of 1.81 log10CFU/ml. The Activity [26] was 4.24 log10CFU/ml, the Activity [27] was “Dose-dependent-effect” and the Survival [28] was 44.4%. The Survival [29] was 66.7%, the Survival [30] was 100% and the deltaH [31] was -2.72 kcal/mol. The deltaS [32] was 11.7 cal/mol/deg.
